Data: PubChem BioAssay AID1963863 (Molecular Pharmacology Branch, DTP, NCI, 2024)

Tested on: 931267-113-T-J1-PDC KRAS spheroid with HUVEC/MSC, viability
Experiment: Anticancer human tumor 931267-113-T-J1-PDC patient-derived colon adenocarcinoma cell line growth inhibition [KRAS2]
Details: for IC50: curve of first compound; for viability, T/C: stronger effect = lower value
How it was run: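 KRAS-mutant tumor cells were grown as spheroids with HUVEC endothelial cells and human MSCs as stroma. Targeted agents were tested alone and with KRAS pathway inhibitors. Doses started at or near clinical Cmax, or 10 microM, descending half-log.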
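Note: compound exposure lasted 7 days before the readout.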
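Throughout, for viability, T/C: 100% = DMSO vehicle control viability.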

Molecule `CC(=O)Nc1cccc(-n2c(=O)n(C3CC3)c(=O)c3c(Nc4ccc(I)cc4F)n(C)c(=O)c(C)c32)c1` + CC1OCC2(CCN(c3cnc(Sc4ccnc(N)c4Cl)c(N)n3)CC2)C1N has an IC50 (second compound 0.1 µM) of 8.08 nM, an IC50 (second compound 0.316 µM) of 9.27 nM and an IC50 (second compound 1 µM) of 3.37 nM. The IC50 (second compound 3.16 µM) was 0.951 nM, the IC50 (second compound 10 µM) was 0.274 nM and the viability, T/C (second compound 0.1 µM, first compound 0.0001 µM) was 92%. For the same molecule, the viability, T/C (second compound 0.1 µM, first compound 0.000316 µM) was 81.6%, the viability, T/C (second compound 0.1 µM, first compound 0.001 µM) was 68.2% and the viability, T/C (second compound 0.1 µM, first compound 0.00316 µM) was 56.1%. The viability, T/C (second compound 0.1 µM, first compound 0.01 µM) was 62.2%, the viability, T/C (second compound 0.1 µM, first compound 0.0316 µM) was 20.1% and the viability, T/C (second compound 0.316 µM, first compound 0.0001 µM) was 60.2%. The viability, T/C (second compound 0.316 µM, first compound 0.000316 µM) was 54.3%, the viability, T/C (second compound 0.316 µM, first compound 0.001 µM) was 71.8% and the viability, T/C (second compound 0.316 µM, first compound 0.00316 µM) was 48.9%. For the same molecule, the viability, T/C (second compound 0.316 µM, first compound 0.01 µM) was 51.7%, the viability, T/C (second compound 0.316 µM, first compound 0.0316 µM) was 7.58% and the viability, T/C (second compound 1 µM, first compound 0.0001 µM) was 67.7%. It also gave a viability, T/C (second compound 1 µM, first compound 0.000316 µM) of 69.5%, a viability, T/C (second compound 1 µM, first compound 0.001 µM) of 53.9% and a viability, T/C (second compound 1 µM, first compound 0.00316 µM) of 50.8%. For the same molecule, the viability, T/C (second compound 1 µM, first compound 0.01 µM) was 37.7%, the viability, T/C (second compound 1 µM, first compound 0.0316 µM) was 6.56% and the viability, T/C (second compound 3.16 µM, first compound 0.0001 µM) was 59.7%. It also gave a viability, T/C (second compound 3.16 µM, first compound 0.000316 µM) of 61.5%, a viability, T/C (second compound 3.16 µM, first compound 0.001 µM) of 46.9% and a viability, T/C (second compound 3.16 µM, first compound 0.00316 µM) of 38.7%. It also gave a viability, T/C (second compound 3.16 µM, first compound 0.01 µM) of 26.9%, a viability, T/C (second compound 3.16 µM, first compound 0.0316 µM) of 7.86% and a viability, T/C (second compound 10 µM, first compound 0.0001 µM) of 60.8%. For the same molecule, the viability, T/C (second compound 10 µM, first compound 0.000316 µM) was 47.9%, the viability, T/C (second compound 10 µM, first compound 0.001 µM) was 31.8% and the viability, T/C (second compound 10 µM, first compound 0.00316 µM) was 35%. It also gave a viability, T/C (second compound 10 µM, first compound 0.01 µM) of 12.3% and a viability, T/C (second compound 10 µM, first compound 0.0316 µM) of 2.06%.
